From the supplement of paper PMC10011410
± gives the standard deviation of the averaged measurements.

Assays:
[1] = system: U-2 OS; assay: intracellular GSH:GSSG ratio (calculated); higher = more reduced glutathione pool; conditions: 24 h
Method: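 Intracellular glutathione in U-2 OS cells after 24 h compound treatment at 5, 10 and 20 uM (some at 40 and 80 uM). Total glutathione and GSSG were measured with the GSH/GSSG-Glo kit, and the GSH:GSSG ratio was calculated. Mean of five technical replicate plates.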

[2] = system: U-2 OS; assay: cell viability (CellTiter-Glo) relative to DMSO (% of control); higher = more viable; conditions: 24 h
Method: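 Cell viability of U-2 OS cells by CellTiter-Glo after 24 h compound treatment at 5, 10 and 20 uM (some at 40 and 80 uM), measured in parallel with the glutathione assay, as percent of DMSO control. Five technical replicate plates, averaged.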

[3] = system: U-2 OS; assay: total intracellular glutathione (GSH + GSSG) relative to DMSO (% of control); higher = more glutathione; conditions: 24 h
Method: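 Total intracellular glutathione (GSH + GSSG) in U-2 OS cells by GSH/GSSG-Glo after 24 h compound treatment at 5, 10 and 20 uM (some at 40 and 80 uM), as percent of DMSO control. Five technical replicate plates, averaged.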

[4] = system: U-2 OS; assay: cell painting activity score (Mahalanobis distance from DMSO wells); higher = stronger morphological phenotype; conditions: 24 h
Method in brief: (§1)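 Cell painting used U-2 OS cells at about 1,500 per well in 384-well plates, treated by pin tool for 24 h at 37 °C, usually at six 2-fold concentrations from 20 μM to 625 nM. Cells were stained with MitoTracker, concanavalin A, phalloidin, wheat germ agglutinin, Hoechst and SYTO 14 and imaged on an Opera Phenix. Features were extracted with CellProfiler and normalized to DMSO cells on the same plate. The activity score is the Mahalanobis distance from DMSO wells; cell count is relative to DMSO wells. Values are means of four replicate plates.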

[5] = system: U-2 OS; assay: relative cell count vs DMSO (cell painting) (fraction of DMSO control); higher = more cells remaining (less cytotoxic); conditions: 24 h
Method in brief: as §1

[6] = system: U-2 OS; assay: AUC of culture confluence over time (live-cell imaging) (AUC (confluence % x time)); higher = more confluent culture (less growth inhibition)
Method in brief: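 Live-cell imaging tracked confluence of U-2 OS cells grown in F-12K medium plus 10% FBS. After seeding at 750 cells per well in 384-well plates, cells received compounds by pin tool 24 h later, mostly at 20, 10 and 5 μM, with 0.2% DMSO. Plates stayed at 37 °C and were imaged every 4 h for up to 60 h. Each value is the area under the confluence-versus-time curve.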

Row | SMILES | intracellular GSH:GSSG ratio ([1]; 5 µM) | intracellular GSH:GSSG ratio ([1]; 10 µM) | intracellular GSH:GSSG ratio ([1]; 20 µM) | cell viability ([2]; 5 µM) | cell viability ([2]; 10 µM) | cell viability ([2]; 20 µM) | total intracellular glutathione ([3]; 5 µM) | total intracellular glutathione ([3]; 10 µM) | total intracellular glutathione ([3]; 20 µM) | cell painting activity score ([4]; 0.15624 µM) | cell painting activity score ([4]; 0.3124 µM) | cell painting activity score ([4]; 0.625 µM) | cell painting activity score ([4]; 1.25 µM) | cell painting activity score ([4]; 2.5 µM) | cell painting activity score ([4]; 5 µM) | relative cell count ([5]; 0.15624 µM) | relative cell count ([5]; 0.3124 µM) | relative cell count ([5]; 0.625 µM) | relative cell count ([5]; 1.25 µM) | relative cell count ([5]; 2.5 µM) | relative cell count ([5]; 5 µM) | AUC of culture confluence over time ([6]; 5 µM) | intracellular GSH:GSSG ratio ([1]; 40 µM) | intracellular GSH:GSSG ratio ([1]; 80 µM) | cell viability ([2]; 40 µM) | cell viability ([2]; 80 µM) | total intracellular glutathione ([3]; 40 µM) | total intracellular glutathione ([3]; 80 µM) | cell painting activity score ([4]; 10 µM) | cell painting activity score ([4]; 20 µM) | cell painting activity score ([4]; 40 µM) | cell painting activity score ([4]; 80 µM) | relative cell count ([5]; 10 µM) | relative cell count ([5]; 20 µM) | relative cell count ([5]; 40 µM) | relative cell count ([5]; 80 µM) | AUC of culture confluence over time ([6]; 10 µM) | AUC of culture confluence over time ([6]; 20 µM) | AUC of culture confluence over time ([6]; 40 µM) | AUC of culture confluence over time ([6]; 80 µM)
1 | O=S1(=O)CC(N2CCCC2)c2ccccc21 (centres undefined) | 30.8 | 37.7 | 28.5 | 103 ± 3.5 | 103 ± 6.5 | 109 ± 6.8 | 97.6 ± 3.1 | 98.8 ± 6.1 | 102 ± 5.3 | 4.13 | 3.66 | 5.04 | 4.39 | 4.11 | 3.43 | 0.962 | 0.979 | 0.972 | 0.969 | 0.957 | 0.962 | 49.4 | – | – | – | – | – | – | – | – | – | – | – | – | – | – | – | – | – | –
2 | CCCCCOc1ccc(/C=C\c2cccc(O)c2C(=O)O)cc1 | 21.5 | 17.6 | 21.8 | 106 ± 3.3 | 97.9 ± 5.9 | 106 ± 6.7 | 75.1 ± 6.4 | 69.9 ± 7 | 81.1 ± 8.2 | – | – | 5.46 | 4.75 | 3.23 | 3.6 | – | – | 0.986 | 0.944 | 0.908 | 0.973 | 38.6 | 14.2 | 35.3 | 104 ± 5.3 | 99 ± 5.7 | 78.4 ± 6.4 | 76.9 ± 9.8 | 4.31 | 4.17 | 6.92 | 17.3 | 1.05 | 0.952 | 0.501 | 0.24 | 40.9 | 46.8 | 34.2 | 44.5
3 | O=C(OCC)/C(C(OCC)=O)=C\CCCCCCCCCCCCCC | 18.9 | 17.6 | 21.8 | 94.3 ± 6.5 | 96.7 ± 6.4 | 100 ± 8 | 100 ± 4.9 | 95.7 ± 3.5 | 93.1 ± 2 | – | – | 5.04 | 5.19 | 5.29 | 5.06 | – | – | 0.991 | 0.978 | 0.959 | 1.02 | 53.1 | 22 | 20.9 | 98 ± 6.9 | 99.2 ± 6.2 | 105 ± 4.8 | 98.9 ± 3 | 5.95 | 10.9 | 7.78 | 10.2 | 0.99 | 0.967 | 0.841 | 0.829 | 50.2 | 48.9 | 50.4 | 50.3
4 | COc1ccc(N2C(=O)CC(Sc3nnc(-c4ccccc4)o3)C2=O)cc1 (centres undefined) | 26.4 | 14.5 | 4.1 | 105 ± 6.2 | 91.8 ± 19 | 9.21 ± 6.6 | 97.4 ± 5.6 | 97.1 ± 17 | 20 ± 8 | – | – | 2.96 | 3.59 | 3.44 | 4.49 | – | – | 1.1 | 1.07 | 1.16 | 1.08 | 24.5 | – | – | – | – | – | – | 6.07 | 11.5 | – | – | 1.1 | 0.796 | – | – | 11.3 | 11.9 | – | –
5 | O=C1C=CC(=O)N1c1ccccc1 | 20.1 | 4.06 | 17.8 | 81.7 ± 12 | 14.3 ± 4.6 | 4.32 ± 3.1 | 114 ± 9.5 | 23.6 ± 7.2 | 14.3 ± 6.1 | – | – | 4.85 | 4.24 | 9.29 | 14.7 | – | – | 1.02 | 1.06 | 0.8 | 0.602 | 13.1 | – | – | – | – | – | – | 19.6 | 16.3 | – | – | 0.224 | 0.317 | – | – | 14.2 | 13.5 | – | –
6 | O=S1(=O)C=Cc2ccccc21 | 19.9 | 14.6 | 13.5 | 102 ± 5 | 97.3 ± 2.8 | 103 ± 5.8 | 138 ± 4 | 132 ± 8.3 | 141 ± 7.7 | – | – | 7.06 | 8.41 | 10.4 | 10.2 | – | – | 1.04 | 0.994 | 0.991 | 1.05 | 53.2 | – | – | – | – | – | – | 13.2 | 13.2 | – | – | 0.975 | 0.957 | – | – | 50.3 | 36.8 | – | –
7 | O=C1/C(=C/c2ccc(O)c(Br)c2)CCC/C1=C\c1ccc(O)c(Br)c1 | 15.5 | 14 | 11.9 | 100 ± 4.4 | 95.1 ± 4.6 | 94.1 ± 5.6 | 113 ± 2.6 | 126 ± 4.8 | 120 ± 2.2 | – | – | 4.8 | 5.76 | 5.97 | 8.32 | – | – | 1.01 | 1.02 | 0.982 | 0.904 | 49.5 | 9.48 | 3.73 | 88.5 ± 5.9 | 11.9 ± 2.3 | 119 ± 3.6 | 13.4 ± 2.5 | 9.31 | 12.2 | – | – | 0.96 | 0.55 | – | – | – | – | – | –
